Test results reported in patent publication US12704506B2, “Microbial analysis without cell purification” (First Light Diagnostics, Inc., priority 2018, dated 2026).
Read-outs that look alike come from different tables or passages of the source.

Assays:
K. oxytoca = system: K. oxytoca; set-up: key: previously determined antibiotic resistance (shown with “X”); settings: cited from earlier work
[1] = system: K. pneumonaie strain in clinical urine sample BIUR0084; experiment: automated MultiPath AST cartridge on clinical urine, Example 8; assay type: cell-based, K. pneumoniae; settings: for sensitive/resistant call by MulitPath: clinical urine BIUR0084, 4 h growth, fold growth value of 2; for growth call at all antibiotic concentrations (MulitPath assay): clinical urine BIUR0084, fold growth value of 2, 4 h
K. pneumoniae = system: K. pneumoniae; set-up: key: previously determined antibiotic resistance (shown with “X”); settings: cited from earlier work
E. coli = system: E. coli; set-up: key: previously determined antibiotic resistance (shown with “X”); settings: cited from earlier work
P. mirabilis = system: P. mirabilis; set-up: key: previously determined antibiotic resistance (shown with “X”); settings: cited from earlier work
E. coli BAA-2469 [2] = system: E. coli BAA-2469; set-up: unit not given beside the values; settings: E. coli BAA-2469, regardless of the amount of S. aureus ATCC 25923 cells
E. coli BAA-2469 [3] = system: E. coli BAA-2469; set-up: unit not given beside the values
Excerpt: Comparison Method: Results for the novel assay method described here were compared to broth microdilutions (BMD) performed according the […] 2018.

P. aeruginosa = system: P. aeruginosa; set-up: key: previously determined antibiotic resistance (shown with “X”); settings: cited from earlier work

| Compound | previously determined antibiotic resistance (K. oxytoca; K. oxytoca CDC0028) | previously determined antibiotic resistance (K. oxytoca; K. oxytoca CDC0071) | previously determined antibiotic resistance (K. oxytoca; K. oxytoca CDC0147) | sensitive/resistant call by MulitPath [1] | growth call at all antibiotic concentrations (MulitPath assay) [1] | previously determined antibiotic resistance (K. pneumoniae; K. pneumoniae ATCC13883) | previously determined antibiotic resistance (K. pneumoniae; K. pneumoniae CDC0010) | previously determined antibiotic resistance (K. pneumoniae; K. pneumoniae CDC0016) | previously determined antibiotic resistance (K. pneumoniae; K. pneumoniae CDC0107) | previously determined antibiotic resistance (K. pneumoniae; K. pneumoniae CDC0117) | previously determined antibiotic resistance (K. pneumoniae; K. pneumoniae CDC0126) | previously determined antibiotic resistance (E. coli; E. coli ATCC25922) | previously determined antibiotic resistance (E. coli; E. coli BAA-2469) | previously determined antibiotic resistance (E. coli; E. coli BAA-2471) | previously determined antibiotic resistance (P. mirabilis; P. mirabilis ATCC7002) | previously determined antibiotic resistance (P. mirabilis; P. mirabilis CDC0029) | previously determined antibiotic resistance (P. mirabilis; P. mirabilis CDC0059) | previously determined antibiotic resistance (P. mirabilis; P. mirabilis CDC0155) | previously determined antibiotic resistance (P. mirabilis; P. mirabilis CDC0156) | previously determined antibiotic resistance (P. mirabilis; P. mirabilis CDC0159) | further results |
| --- | --- | --- | --- | --- | --- | --- | --- | --- | --- | --- | --- | --- | --- | --- | --- | --- | --- | --- | --- | --- | --- |
| Trimethoprim/Sulfamethoxazole | X | X | X | resistant | growth | X | X | X | X | X | X | X | X | X | X | X | X | X | X | X | previously determined antibiotic resistance (E. coli; E. coli CDC0017): X; previously determined antibiotic resistance (E. coli; E. coli CDC0019): X; previously determined antibiotic resistance (E. coli; E. coli CDC0084): X |
| O=C1CN(/N=C/c2ccc([N+](=O)[O-])o2)C(=O)N1 [Nitrofurantoin] |  |  |  |  |  |  |  |  |  |  |  |  |  |  |  |  |  |  |  |  | MIC, novel 4-hour AST assay (MultiPath) (E. coli BAA-2469 [2]): 8; MIC, CLSI-like broth microdilution (E. coli BAA-2469 [3]; E. coli BAA-2469, in the absence of S. aureus): 8; MIC, CLSI-like broth microdilution (E. coli BAA-2469 [3]; E. coli BAA-2469, with a 100-fold excess of S. aureus ATCC 25923): 32 |
| C[C@@H](O)[C@H]1C(=O)N2C(C(=O)O)=C(S[C@@H]3CN[C@H](C(=O)N(C)C)C3)[C@H](C)[C@H]12 [Meropenem] | X | X | X |  |  | X | X | X |  |  |  | X |  |  | X | X | X | X | X | X | previously determined antibiotic resistance (P. aeruginosa; P. aeruginosa CDC0105): X; previously determined antibiotic resistance (P. aeruginosa; P. aeruginosa CDC0111): X; previously determined antibiotic resistance (P. aeruginosa; P. aeruginosa CDC0232): X; previously determined antibiotic resistance (P. aeruginosa; P. aeruginosa CDC0242): X; previously determined antibiotic resistance (P. aeruginosa; P. aeruginosa CDC0247): X; previously determined antibiotic resistance (K. pneumoniae; K. pneumoniae CDC0034): X; previously determined antibiotic resistance (K. pneumoniae; K. pneumoniae CDC0043): X; previously determined antibiotic resistance (K. pneumoniae; K. pneumoniae CDC0076): X; previously determined antibiotic resistance (K. pneumoniae; K. pneumoniae CDC0080): X; previously determined antibiotic resistance (E. coli; E. coli CDC0001): X; previously determined antibiotic resistance (E. coli; E. coli CDC0006): X; previously determined antibiotic resistance (E. coli; E. coli CDC0020): X; previously determined antibiotic resistance (E. coli; E. coli CDC0085): X; previously determined antibiotic resistance (E. coli; E. coli CDC0114): X |
| Cc1nnc(SCC2=C(C(=O)O)N3C(=O)[C@@H](NC(=O)Cn4cnnn4)[C@H]3SC2)s1 [Cefazolin] |  |  |  | resistant | growth |  |  |  |  |  |  |  |  |  |  |  |  |  |  |  |  |
| O=C(O)c1cn(C2CC2)c2cc(N3CCNCC3)c(F)cc2c1=O [Ciprofloxacin] | X | X | X |  |  | X |  | X |  | X | X | X | X | X | X | X | X | X | X | X | previously determined antibiotic resistance (P. aeruginosa; P. aeruginosa ATCC27853): X; previously determined antibiotic resistance (P. aeruginosa; P. aeruginosa CDC0251): X; previously determined antibiotic resistance (P. aeruginosa; P. aeruginosa CDC0253): X; previously determined antibiotic resistance (P. aeruginosa; P. aeruginosa CDC0259): X; previously determined antibiotic resistance (P. aeruginosa; P. aeruginosa CDC0261): X; previously determined antibiotic resistance (P. aeruginosa; P. aeruginosa CDC0262): X; previously determined antibiotic resistance (K. pneumoniae; K. pneumoniae CDC0034): X; previously determined antibiotic resistance (K. pneumoniae; K. pneumoniae CDC0076): X; previously determined antibiotic resistance (E. coli; E. coli BAA-2452): X; previously determined antibiotic resistance (E. coli; E. coli CDC0017): X; previously determined antibiotic resistance (E. coli; E. coli CDC0019): X |
| CC(C)(O/N=C(\C(=O)N[C@@H]1C(=O)N2C(C(=O)[O-])=C(C[n+]3ccccc3)CS[C@H]12)c1csc(N)n1)C(=O)O [Ceftazidime] | X | X | X |  |  | X | X | X | X |  | X | X |  |  | X | X | X | X | X | X | previously determined antibiotic resistance (P. aeruginosa; P. aeruginosa ATCC27853): X; previously determined antibiotic resistance (P. aeruginosa; P. aeruginosa CDC0105): X; previously determined antibiotic resistance (P. aeruginosa; P. aeruginosa CDC0111): X; previously determined antibiotic resistance (P. aeruginosa; P. aeruginosa CDC0242): X; previously determined antibiotic resistance (P. aeruginosa; P. aeruginosa CDC0251): X; previously determined antibiotic resistance (P. aeruginosa; P. aeruginosa CDC0253): X; previously determined antibiotic resistance (K. pneumoniae; K. pneumoniae CDC0041): X; previously determined antibiotic resistance (K. pneumoniae; K. pneumoniae CDC0160): X; previously determined antibiotic resistance (E. coli; E. coli CDC0020): X; previously determined antibiotic resistance (E. coli; E. coli CDC0067): X; previously determined antibiotic resistance (E. coli; E. coli CDC0084): X; previously determined antibiotic resistance (E. coli; E. coli CDC0086): X; previously determined antibiotic resistance (E. coli; E. coli CDC0350): X |
